Test system: β-receptor
Experiment: Reactivity for dobutamine (β-receptor response, LVdp/dtmax) in anesthetized rats 1 week after the operation
Assay type: in vivo, rat
Conditions: i.v.; for reactivity of the β-receptor: difference in LVdp/dtmax between before and after administration (Δ): male JCL-Wistar rat, mean ± standard error
Protocol: A male JCL-Wistar rat (13 to 15 week-old) was anesthetized with pentobarbital (50 mg/kg, i.p.) and subjected to thoracotomy at the midline under artificial respiration. The pericardium was dissected to expose the heart, and the proximal portion of the ascending aorta was dissected. A thread was put through the proximal portion of the left coronary artery along with the cardiac muscle, with a needled suture, and the thread was ligated to occlude the coronary artery. Immediately after the occlusion of the coronary artery (within 5 minutes), a polyethylene tube having a length of 3 mm (outer diameter: 2.80 mm; inner diameter: 1.77 mm) was installed on the proximal portion of the ascending aorta to conduct stenosis of 40 to 50%. After that, close-chest operation was conducted, and the rat was returned to a breeding cage after spontaneous respiration had been confirmed, and bred for 1 week by a general procedure. The rats in which the recovery of spontaneous respiration had not been confirmed were excluded from the following analysis. After 1 week of the operation, to measure the hemodynamics, the rat was anesthetized with pentobarbital (40 mg/kg, i.p.). A tracheal cannula was inserted, then a mirror catheter having a pressure sensor (2F) was inserted from the right carotid artery to the left ventricle. The waveform of the left ventricular pressure was analyzed with a differential amplifier, and the maximum differential value (LVdp/dtmax) and the minimum differential value (LVdp/dtmin) were recorded.
On the other hand, in order to measure the blood pressure and to administrate a drug, a polyethylene tube was inserted to the left femoral artery and left femoral vein, respectively, and the heart rate carculated from the blood pressure pulse and the dipolar lead (II) electrocardiogram were recorded.
Dobutamime was dissolved in a solution of saline containing 0.01% of ascorbic acid, and the solution was administrated in a dose of 0.3 to 10 μg/kg i.v. to investigate the β-receptor response.
The basal hemodynamics after 1 week of the operation was represented by the value before the administration of dobutamime, and the reactivity of the β-receptor was represented by the difference between before and after the administration of dobutamime (Δ mmHg/sec) by the mean value±standard error.

In the case of CC(CCc1ccc(O)cc1)NCCc1ccc(O)c(O)c1 (stereo not drawn) [Dobutamine], the “reactivity of the β-receptor: difference in LVdp/dtmax between before and after administration (Δ)” value (0.3 μg/kg, group with coronary stenosis and stenosis of the proximal portion of the aorta) was 278 ± 144 mmHg/sec, the “reactivity of the β-receptor: difference in LVdp/dtmax between before and after administration (Δ)” value (0.3 μg/kg, sham-operated group) was 2287 ± 8 mmHg/sec and the “reactivity of the β-receptor: difference in LVdp/dtmax between before and after administration (Δ)” value (1.0 μg/kg, group with coronary stenosis and stenosis of the proximal portion of the aorta) was 832 ± 501 mmHg/sec. The “reactivity of the β-receptor: difference in LVdp/dtmax between before and after administration (Δ)” value (1.0 μg/kg, sham-operated group) was 4127 ± 112 mmHg/sec, the “reactivity of the β-receptor: difference in LVdp/dtmax between before and after administration (Δ)” value (3.0 μg/kg, group with coronary stenosis and stenosis of the proximal portion of the aorta) was 1641 ± 794 mmHg/sec and the “reactivity of the β-receptor: difference in LVdp/dtmax between before and after administration (Δ)” value (3.0 μg/kg, sham-operated group) was 7135 ± 753 mmHg/sec. The “reactivity of the β-receptor: difference in LVdp/dtmax between before and after administration (Δ)” value (10 μg/kg, group with coronary stenosis and stenosis of the proximal portion of the aorta) was 2431 ± 1028 mmHg/sec, the “reactivity of the β-receptor: difference in LVdp/dtmax between before and after administration (Δ)” value (10 μg/kg, sham-operated group) was 7654 ± 999 mmHg/sec and the “maximum reaction of LVdp/dtmax in the stenosis group as compared with the sham-operated group” value (all doses 0.3, 1.0, 3.0, 10 μg/kg, coronary + proximal aorta stenosis group vs sham-operated group) was “remarkably decreased”.

Reference: US7166762B2, “Method of constructing heart failure model animal” (Takeda Pharmaceutical Company Limited, priority 2000, dated 2007)
